This assay concerns the target T1, human mGlu4 receptor (Homo sapiens, UniProt Q14833).
T1 construct: expressed in transfected cells; host or cells: HEK-293 (monoclonal, stably transfected)
Kind of assay: Ca2+ mobilization in vitro assay on recombinant human mGlu4 expressed in HEK293 cells (mGlu4 PAM). The note with it: for Emax: HEK293, maximal response in % of the maximal stimulatory effect obtained with saturating concentrations of L-AP4, read-out: Eff. (%); for EC50: HEK-293 cells, Ca2+ mobilization, L-AP4 added at EC20. The format is cell-based. How it is done:
Determination of EC50 Values Using a Ca2+ mobilization in vitro Assay on Recombinant Human mGlu4 Expressed in HEK293 cells:
A monoclonal HEK-293 cell line stably transfected with a cDNA encoding for the human mGlu4 receptor was generated; for the work with mGlu4 Positive Allosteric Modulators (PAMs), a cell line with low receptor expression levels and low constitutive receptor activity was selected to allow the differentiation of agonistic versus PAM activity. Cells were cultured according to standard protocols (Freshney, 2000) in Dulbecco's Modified Eagle Medium with high glucose supplemented with 1 mM glutamine, 10% (vol/vol) heat-inactivated bovine calf serum, Penicillin/Streptomycin, 50 μg/ml hygromycin and 15 μg/ml blasticidin (all cell culture reagents and antibiotics from Invitrogen, Basel, Switzerland).
About 24 hrs before an experiment, 5×10^4 cells/well were seeded in poly-D-lysine coated, black/clear-bottomed 96-well plates. The cells were loaded with 2.5 μM Fluo-4AM in loading buffer (1×HBSS, 20 mM HEPES) for 1 hr at 37° C. and washed five times with loading buffer. The cells were transferred into a Functional Drug Screening System 7000 (Hamamatsu, Paris, France), and 11 half logarithmic serial dilutions of test compound at 37° C. were added and the cells were incubated for 10-30 min. with on-line recording of fluorescence. Following this pre-incubation step, the agonist (2S)-2-amino-4-phosphonobutanoic acid (L-AP4) was added to the cells at a concentration corresponding to EC20 with on-line recording of fluorescence; in order to account for day-to-day variations in the responsiveness of cells, the EC20 of L-AP4 was determined immediately ahead of each experiment by recording of a full dose-response curve of L-AP4.
Responses were measured as peak increase in fluorescence minus basal (i.e. fluorescence without addition of L-AP4), normalized to the maximal stimulatory effect obtained with saturating concentrations of L-AP4. Graphs were plotted with the % maximal stimulatory using XLfit, a curve fitting program that iteratively plots the data using Levenburg Marquardt algorithm. The single site competition analysis equation used was y=A+((B−A)/(1+((x/C)D))), where y is the % maximal stimulatory effect, A is the minimum y, B is the maximum y, C is the EC50, x is the log 10 of the concentration of the competing compound and D is the slope of the curve (the Hill Coefficient). From these curves the EC50 (drug concentration at which 50% of the maximal receptor activation was achieved), the Hill coefficient as well as the maximal response in % of the maximal stimulatory effect obtained with saturating concentrations of L-AP4 were calculated (see FIG. 1).
A depression of the signal observed after addition of the EC20 concentration of L-AP4was indicative of an inhibitory activity of the test compound.
(A change in cytosolic calcium serves as a functional read-out for many receptors and channels.)

Each structure is given as a SMILES string.

T1 sequence (Q14833 33-912): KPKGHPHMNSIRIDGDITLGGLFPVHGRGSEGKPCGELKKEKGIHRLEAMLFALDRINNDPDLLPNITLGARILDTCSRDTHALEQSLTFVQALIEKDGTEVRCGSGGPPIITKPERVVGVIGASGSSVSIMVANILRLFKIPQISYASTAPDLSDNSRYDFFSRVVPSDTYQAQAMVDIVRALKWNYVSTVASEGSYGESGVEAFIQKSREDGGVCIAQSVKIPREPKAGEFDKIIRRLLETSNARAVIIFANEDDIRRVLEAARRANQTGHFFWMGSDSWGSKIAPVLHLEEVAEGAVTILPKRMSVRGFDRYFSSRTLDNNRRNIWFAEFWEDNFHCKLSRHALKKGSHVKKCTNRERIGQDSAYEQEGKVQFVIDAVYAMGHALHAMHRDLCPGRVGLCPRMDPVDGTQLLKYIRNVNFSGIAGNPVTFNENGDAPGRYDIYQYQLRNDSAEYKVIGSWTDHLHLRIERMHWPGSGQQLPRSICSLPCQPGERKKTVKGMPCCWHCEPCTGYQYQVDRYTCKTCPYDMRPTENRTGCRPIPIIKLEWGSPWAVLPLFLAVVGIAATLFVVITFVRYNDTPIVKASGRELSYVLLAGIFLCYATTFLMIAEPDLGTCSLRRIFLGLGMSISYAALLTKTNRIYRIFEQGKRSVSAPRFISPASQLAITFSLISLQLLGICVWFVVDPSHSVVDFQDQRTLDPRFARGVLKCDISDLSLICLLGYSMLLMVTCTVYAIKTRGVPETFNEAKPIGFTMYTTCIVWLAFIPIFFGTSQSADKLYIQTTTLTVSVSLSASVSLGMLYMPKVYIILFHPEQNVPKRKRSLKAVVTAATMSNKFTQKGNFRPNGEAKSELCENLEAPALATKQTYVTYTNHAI

In general, EC50 refers to the midpoint of the concentration-response curve. For `CN1C(=O)N(c2ccc(C#Cc3ccccc3)cc2Cl)C(=O)CC1(C)C` [Example 2, 3-[2-Chloro-4-(2-phenylethynyl)phenyl]-1,6,6-trimethyl-hexahydropyrimidine-2,4-dione], the Emax came out at 107% and the EC50 amounted to 341 nM.

In the case of `CN1C(=O)N(c2c(F)cc(C#Cc3cccnc3)cc2F)C(=O)CC1(C)c1ccccc1` (racemic) [Example 15, (6RS)-3-[2,6-Difluoro-4-[2-(3-pyridyl)ethynyl]phenyl]-1,6-dimethyl-6-phenyl-hexahydropyrimidine-2,4-dione], the Emax turned out to be 134% and the EC50 came out at 100 nM.

`CN1C(=O)N(c2c(F)cc(C#Cc3cccnc3)cc2F)C(=O)CC1(C)c1ccc(Cl)cc1` (racemic) [Example 41, (6RS)-6-(4-Chlorophenyl)-3-[2,6-difluoro-4-[2-(3-pyridyl)ethynyl]phenyl]-1,6-dimethyl-hexahydropyrimidine-2,4-dione]: the Emax was 115% and the EC50 came out at 229 nM.

On to `CN1C(=O)N(c2ccc(C#Cc3ccccc3)cc2Cl)C(=O)CC12CCOCC2` [Example 4, 3-[2-Chloro-4-(2-phenylethynyl)phenyl]-1-methyl-9-oxa-1,3-diazaspiro[5.5]undecane-2,4-dione], for which the Emax was 103% and the EC50 turned out to be 388 nM.

For the compound `CC(C)n1cc([C@]2(C)CC(=O)N(c3c(F)cc(C#Cc4ccccc4)cc3F)C(=O)N2C)ccc1=O` [Example 68, (6S)-3-[2,6-Difluoro-4-(2-phenylethynyl)phenyl]-6-(1-isopropyl-6-oxo-3-pyridyl)-1,6-dimethyl-hexahydropyrimidine-2,4-dione], the Emax was 113% and the EC50 was 44 nM.

On to `CN1C(=O)N(c2ccc(C#Cc3ccccc3)cc2Cl)C(=O)CC1(C)c1cccnc1` (racemic) [Example 47, (6RS)-3-[2-Chloro-4-(2-phenylethynyl)phenyl]-1,6-dimethyl-6-(3-pyridyl)hexahydropyrimidine-2,4-dione], for which the Emax was 121% and the EC50 came to 132 nM.

Turning to `CN1C(=O)N(c2c(F)cc(C#Cc3ccccc3)cc2F)C(=O)CC12CCCOC2` (racemic) [Example 17, (6RS)-3-[2,6-Difluoro-4-(2-phenylethynyl)phenyl]-1-methyl-8-oxa-1,3-diazaspiro[5.5]undecane-2,4-dione], the Emax was found to be 129% and the EC50 worked out at 183 nM.

For the compound `CC12CC(=O)N(c3c(F)cc(C#Cc4ccccc4)cc3Cl)C(=O)N1CCNC2=O` (racemic) [Example 86, (9aRS)-7-[2-Chloro-6-fluoro-4-(2-phenylethynyl)phenyl]-9a-methyl-2,3,4,9-tetrahydropyrazino[1,2-c]pyrimidine-1,6,8-trione], the Emax came out at 100% and the EC50 was 108 nM.

Turning to `CN1C(=O)N(c2c(F)cc(C#Cc3cccnc3)cc2F)C(=O)CC1(C)C1CCCCC1` (racemic) [Example 31, (6RS)-6-Cyclohexyl-3-[2,6-difluoro-4-[2-(3-pyridyl)ethynyl]phenyl]-1,6-dimethyl-hexahydropyrimidine-2,4-dione], the Emax amounted to 117% and the concentration giving a half-maximal response (EC50) was determined as 245 nM.

Take `CCN1C(=O)N(c2c(F)cc(C#Cc3cccnc3)cc2Cl)C(=O)CC1(C)C` [Example 10, 3-[2-Chloro-6-fluoro-4-[2-(3-pyridyl)ethynyl]phenyl]-1-ethyl-6,6-dimethyl-hexahydropyrimidine-2,4-dione]: the Emax was 169% and the EC50 came to 256 nM.

`CN1C(=O)N(c2c(F)cc(C#Cc3ccccc3)cc2F)C(=O)C2CCCC21C` (stereo in doubt) [Example 14, (4aRS,7aRS)-3-[2,6-Difluoro-4-(2-phenylethynyl)phenyl]-1,7a-dimethyl-4a,5,6,7-tetrahydrocyclopenta[d]pyrimidine-2,4-dione]: the Emax was 119% and the EC50 stood at 125 nM.

For the compound `CCC1(c2ccccc2)CC(=O)N(c2c(F)cc(C#Cc3cccnc3)cc2F)C(=O)N1C` (racemic) [Example 48, (6RS)-3-[2,6-Difluoro-4-[2-(3-pyridyl)ethynyl]phenyl]-6-ethyl-1-methyl-6-phenyl-hexahydropyrimidine-2,4-dione], the Emax came to 108% and the EC50 worked out at 88 nM.

Turning to `CN1C(=O)N(c2c(F)cc(C#Cc3ccccc3)cc2F)C(=O)C[C@@]1(C)c1ccc(=O)[nH]n1` [Example 82, (6S)-3-[2,6-Difluoro-4-(2-phenylethynyl)phenyl]-1,6-dimethyl-6-(6-oxo-1H-pyridazin-3-yl)hexahydropyrimidine-2,4-dione], the Emax is 115% and the EC50 came out at 18 nM.

`CN1C(=O)N(c2c(F)cc(C#Cc3ccccc3)cc2F)C(=O)C[C@@]1(C)c1ccc(=O)n(C)c1` [Example 66, (6S)-3-[2,6-Difluoro-4-(2-phenylethynyl)phenyl]-1,6-dimethyl-6-(1-methyl-6-oxo-3-pyridyl)hexahydropyrimidine-2,4-dione]: the Emax stood at 114% and the EC50 is 43 nM.

Turning to `CN1C(=O)N(c2c(F)cc(C#Cc3ccccc3)cc2F)C(=O)C[C@@]1(C)c1cc[nH]c(=O)c1` [Example 74, (6S)-3-[2,6-Difluoro-4-(2-phenylethynyl)phenyl]-1,6-dimethyl-6-(2-oxo-1H-pyridin-4-yl)hexahydropyrimidine-2,4-dione], the Emax stood at 116% and the EC50 came to 42 nM.

Consider `CN1C(=O)N(c2ncc(C#Cc3ccccc3)cc2Cl)C(=O)CC1(C)c1ccccc1` (racemic) [Example 32, (6RS)-3-[3-Chloro-5-(2-phenylethynyl)-2-pyridyl]-1,6-dimethyl-6-phenyl-hexahydropyrimidine-2,4-dione], for which the Emax worked out at 103% and the EC50 was 155 nM.

Consider `CN1C(=O)N(c2c(F)cc(C#Cc3cccnc3)cc2F)C(=O)CC1(C)c1ccccc1` (stereo in doubt) [Example 19, (6S)-3-[2,6-Difluoro-4-[2-(3-pyridyl)ethynyl]phenyl]-1,6-dimethyl-6-phenyl-hexahydropyrimidine-2,4-dione], for which the Emax turned out to be 178% and the EC50 came to 50 nM.

As for `CCC1(C)CC(=O)N(c2c(F)cc(C#Cc3ccccc3)cc2F)C(=O)N1C` (racemic) [Example 18, (6RS)-3-[2,6-Difluoro-4-(2-phenylethynyl)phenyl]-6-ethyl-1,6-dimethyl-hexahydropyrimidine-2,4-dione], the Emax is 241% and the EC50 came to 49 nM.

As for `CN1C(=O)N(c2ccc(C#Cc3ccccc3)cc2Cl)C(=O)CC12CCC2` [Example 5, 7-[2-Chloro-4-(2-phenylethynyl)phenyl]-5-methyl-5,7-diazaspiro[3.5]nonane-6,8-dione], the Emax is 93% and the EC50 came to 304 nM.

Consider `CC1C(=O)N(c2c(F)cc(C#Cc3ccccc3)cc2F)C(=O)N(C)C1(C)C` (racemic) [Example 7, (5RS)-3-[2,6-Difluoro-4-(2-phenylethynyl)phenyl]-1,5,6,6-tetramethyl-hexahydropyrimidine-2,4-dione], for which the Emax was 148% and the EC50 is 157 nM.

For the compound `CN1C(=O)N(c2ncc(C#Cc3ccccc3)cc2F)C(=O)CC1(C)c1ccccc1` (racemic) [Example 45, (6RS)-3-[3-Fluoro-5-(2-phenylethynyl)-2-pyridyl]-1,6-dimethyl-6-phenyl-hexahydropyrimidine-2,4-dione], the Emax came out at 107% and the EC50 is 72 nM.

In the case of `CN1C(=O)N(c2c(F)cc(C#Cc3cccnc3)cc2F)C(=O)CC1(C)c1ccccc1Cl` (racemic) [Example 40, (6RS)-6-(2-Chlorophenyl)-3-[2,6-difluoro-4-[2-(3-pyridyl)ethynyl]phenyl]-1,6-dimethyl-hexahydropyrimidine-2,4-dione], the Emax was 109% and the EC50 turned out to be 394 nM.

With `CN1C(=O)N(c2c(F)cc(C#Cc3cccnc3)cc2Cl)C(=O)CC1(C)c1ccccc1` (racemic) [Example 34, (6RS)-3-[2-Chloro-6-fluoro-4-[2-(3-pyridyl)ethynyl]phenyl]-1,6-dimethyl-6-phenyl-hexahydropyrimidine-2,4-dione], the Emax amounted to 150% and the EC50 amounted to 135 nM.

These data come from patent US9725416B2, “Ethynyl derivatives” (Hoffmann-La Roche Inc., priority 2014, dated 2017).
